Read-outs that look alike come from different tables or passages of the source.
How the values were obtained:
Test in all cases: NCI human tumor in vitro primary screen
Type in all cases: cell-based
[1] = tested on: 786-0; details: renal cancer
From the text: (§1) Only two hundred years ago, many diseases ravaged humankind. Many of these diseases now have been controlled or eradicated. In the development of the means to treat or control these diseases, work with the appropriate common experimental animals was of critical importance. With the various types of cancers, and with the HIV virus, such work is presently ongoing. The research for the treatment of various types of cancer is coordinated in the United States by the National Cancer Institute (NCI). NCI, as a government entity, has been charged with assisting anti-cancer research. To establish whether a substance has anti cancer activity, NCI has established a variety of protocols, one of which involves testing the candidate substance against a cell line panel containing 60 human tumor cell lines. This protocol has been verified and is generally accepted throughout the scientific community. This protocol and the established statistical means of evaluating the results obtained therefrom have been fully described in the literature. See Principles & Practice of Oncology PPO Updates, Volume 3, Number 10, Oct. 1989, by Michael R. Boyd, M.D., Ph.D., for an indepth description of the test protocol. The statistical analysis is explained in "Display and Analysis of Patterns of Differential Activity of Drugs Against Human Tumor Cell Lines: Development of Means Graph and COMPARE Algorithm" Journal of the National Cancer Institute Reports Vol. 81, No. 14, Pg. 1088, Jul. 14, 1989, by K. D. Paull et al. Both of these references are incorporated herein by this reference thereto.
(§2) Biological Testing; Data Display and Analysis; Screening Data Summary. Freshly isolated halistatin 2 was tested in the NCI's human tumor, disease-oriented in vitro primary screen, and data calculations performed. Table 3 is a composite prepared from mean graphs constructed from the averaged GI50 values from quadruplicate screenings of Halistatin 2.

[2] = tested on: A549/ATCC; details: non-small cell lung cancer
From the text: as §1, §2

[3] = tested on: DLD-1; details: colon cancer
From the text: as §1, §2

[4] = tested on: EKVX; details: non-small cell lung cancer
From the text: as §1, §2

[5] = tested on: HCC-2998; details: colon cancer
From the text: as §1, §2

[6] = tested on: HCT-116; details: colon cancer
From the text: as §1, §2

[7] = tested on: HCT-15; details: colon cancer
From the text: as §1, §2

[8] = tested on: HL-60TB; details: leukemia
From the text: as §1, §2

[9] = tested on: HOP-18; details: non-small cell lung cancer
From the text: as §1, §2

[10] = tested on: HT29; details: HT-29, colon cancer
From the text: as §1, §2

[11] = tested on: LOX IMVI; details: melanoma
From the text: as §1, §2

[12] = tested on: LXFL 529
From the text: as §1, §2

[13] = tested on: M19-MEL; details: melanoma
From the text: as §1, §2

[14] = tested on: MOLT-4; details: leukemia
From the text: as §1, §2

[15] = tested on: NCI-H460
From the text: as §1, §2

[16] = tested on: OVCAR-4; details: ovarian cancer
From the text: as §1, §2

[17] = tested on: SF-295; details: CNS cancer
From the text: as §1, §2

[18] = tested on: SK-MEL-2; details: melanoma
From the text: as §1, §2

[19] = tested on: SK-OV-3; details: ovarian cancer
From the text: as §1, §2

[20] = tested on: SNB-19; details: CNS cancer
From the text: as §1, §2

[21] = tested on: SR; details: leukemia, read-out: averaged negative log10 GI50 (converted)
From the text: as §1, §2

[22] = tested on: TK-10; details: renal cancer
From the text: as §1, §2

[23] = tested on: U251; details: U-251, CNS cancer
From the text: as §1, §2

[24] = tested on: UACC-257; details: melanoma
From the text: as §1, §2

[25] = tested on: UO-31; details: renal cancer
From the text: as §1, §2

[26] = read-out: Log10 GI50 (converted)
[27] = read-out: Log10 TGI (converted)
[28] = read-out: averaged negative log10 GI50 (converted)
[29] = non-small cell lung cancer, read-out: averaged negative log10 GI50 (converted)

**Q.** Which results are given for `C=C1CC2CCC34CC5OC6C(O3)C3OC(CCC3OC6(O)C5O4)CC(=O)OC3C(CC4OC(CCC1O2)CC(C)C4=C)OC1CC2OC4(CC2OC1C3C)CC1OC2(CC(C)C3OC5CC(C(O)CO)OC5CC3O2)CC(C)C1O4` (stereo not drawn) [halistatin 2]?
**A.** GI50 [1, 26]: 0.389 nM; IC (TGI) [1, 27]: 10 nM; GI50 [1, 28]: 0.389 nM; GI50 [2, 26]: 1.82 nM; IC (TGI) [2, 27]: 10 nM; GI50 [2, 28]: 1.82 nM; GI50 [3, 26]: 1.2 nM; IC (TGI) [3, 27]: 10 nM; GI50 [3, 28]: 1.2 nM; GI50 [4, 26]: 4.07 nM; IC (TGI) [4, 27]: 10 nM; GI50 [4, 28]: 4.07 nM; GI50 [5, 26]: 1.29 nM; IC (TGI) [5, 27]: 5.25 nM; GI50 [5, 28]: 1.29 nM; GI50 [6, 26]: 0.55 nM; IC (TGI) [6, 27]: 10 nM; GI50 [6, 28]: 0.55 nM; GI50 [7, 26]: 5.5 nM; IC (TGI) [7, 27]: 10 nM; GI50 [7, 28]: 5.5 nM; GI50 ([8]; HL-60(TB), read-out: Log10 GI50 (converted)): 0.158 nM; IC (TGI) ([8]; HL-60(TB), read-out: Log10 TGI (converted)): 1 nM; GI50 ([8]; HL-60TB, read-out: averaged negative log10 GI50 (converted)): 0.158 nM; GI50 [9, 26]: 2.82 nM; IC (TGI) [9, 27]: 10 nM; GI50 [9, 28]: 2.82 nM; GI50 [10, 26]: 0.457 nM; IC (TGI) [10, 27]: 3.72 nM; GI50 [10, 28]: 0.457 nM; GI50 [11, 26]: 0.501 nM; IC (TGI) [11, 27]: 4.57 nM; GI50 [11, 28]: 0.501 nM; GI50 ([12]; LXFL529, non-small cell lung cancer, read-out: Log10 GI50 (converted)): 0.447 nM; IC (TGI) ([12]; LXFL529, non-small cell lung cancer, read-out: Log10 TGI (converted)): 10 nM; GI50 [12, 29]: 0.447 nM; GI50 [13, 26]: 0.331 nM; IC (TGI) [13, 27]: 5.01 nM; GI50 [14, 26]: 0.407 nM; IC (TGI) [14, 27]: 10 nM; GI50 [14, 28]: 0.407 nM; GI50 ([15]; NCl-H460, non-small cell lung cancer, read-out: Log10 GI50 (converted)): 0.38 nM; IC (TGI) ([15]; NCl-H460, non-small cell lung cancer, read-out: Log10 TGI (converted)): 6.76 nM; GI50 [15, 29]: 0.38 nM; GI50 [16, 26]: 7.76 nM; IC (TGI) [16, 27]: 10 nM; GI50 [16, 28]: 7.76 nM; GI50 [17, 26]: 0.182 nM; IC (TGI) [17, 27]: 5.25 nM; GI50 [17, 28]: 0.182 nM; GI50 [18, 26]: 0.309 nM; IC (TGI) [18, 27]: 4.57 nM; GI50 [18, 28]: 0.309 nM; GI50 [19, 26]: 0.676 nM; IC (TGI) [19, 27]: 10 nM; GI50 [19, 28]: 0.676 nM; GI50 [20, 26]: 2.09 nM; IC (TGI) [20, 27]: 10 nM; GI50 [20, 28]: 2.09 nM; GI50 [21]: 0.214 nM; GI50 [22, 26]: 5.5 nM; IC (TGI) [22, 27]: 10 nM; GI50 [22, 28]: 5.5 nM; GI50 [23, 26]: 0.479 nM; IC (TGI) [23, 27]: 9.33 nM; GI50 [23, 28]: 0.479 nM; GI50 [24, 26]: 2.29 nM; IC (TGI) [24, 27]: 10 nM; GI50 [24, 28]: 2.29 nM; GI50 [25, 26]: 6.03 nM; IC (TGI) [25, 27]: 10 nM; GI50 [25, 28]: 6.03 nM

— patent US5352804A, “Isolation and structure of Halistatin 2” (Arizona Board of Regents, a body corporate, acting on …, priority 1993, dated 1994)
